Measurements from ChEMBL document CHEMBL4002627, “Quinolidene based monocarbonyl curcumin analogues as promising antimycobacterial agents: Synthesis and molecular docking study” (Bioorg Med Chem Lett, 2017).
In brackets after ≈: the same amount, converted by molar mass.

Experiments:
[1] = test system: Mycobacterium tuberculosis; assay: Antimycobacterial activity against dormant state of Mycobacterium tuberculosis H37Ra by two fold dilution method; type: functional
[2] = test system: Mycobacterium tuberculosis; assay: Antimycobacterial activity against dormant state of Mycobacterium tuberculosis H37Ra assessed as growth inhibition at 30 ug/ml after 12 days by XTT reduction menadione assay relative to control; type: functional; conditions: 288 h, read-out: GI
[3] = test system: Mycobacterium tuberculosis; assay: Antimycobacterial activity against dormant state of Mycobacterium tuberculosis H37Ra assessed as growth inhibition at 10 ug/ml after 12 days by XTT reduction menadione assay relative to control; type: functional; conditions: 288 h, read-out: GI
[4] = test system: Mycobacterium tuberculosis; assay: Antimycobacterial activity against dormant state of Mycobacterium tuberculosis H37Ra assessed as growth inhibition at 3 ug/ml after 12 days by XTT reduction menadione assay relative to control; type: functional; conditions: 288 h, read-out: GI
[5] = Cytotoxicity against human MCF7 cells assessed as growth inhibition at 30 ug/ml after 48 hrs by MTT assay relative to control; type: cell-based; conditions: read-out: GI
[6] = Cytotoxicity against human MCF7 cells assessed as growth inhibition at 10 ug/ml after 48 hrs by MTT assay relative to control; type: cell-based; conditions: read-out: GI
[7] = Cytotoxicity against human MCF7 cells assessed as growth inhibition at 3 ug/ml after 48 hrs by MTT assay relative to control; type: cell-based; conditions: read-out: GI
[8] = Cytotoxicity against human A549 cells assessed as growth inhibition at 30 ug/ml after 48 hrs by MTT assay relative to control; type: cell-based; conditions: read-out: GI
[9] = Cytotoxicity against human A549 cells assessed as growth inhibition at 10 ug/ml after 48 hrs by MTT assay relative to control; type: cell-based; conditions: read-out: GI
[10] = Cytotoxicity against human A549 cells assessed as growth inhibition at 3 ug/ml after 48 hrs by MTT assay relative to control; type: cell-based; conditions: read-out: GI
[11] = Cytotoxicity against human HCT116 cells assessed as growth inhibition at 30 ug/ml after 48 hrs by MTT assay relative to control; type: cell-based, HCT-116; conditions: read-out: GI
[12] = Cytotoxicity against human HCT116 cells assessed as growth inhibition at 10 ug/ml after 48 hrs by MTT assay relative to control; type: cell-based, HCT-116; conditions: read-out: GI
[13] = Cytotoxicity against human HCT116 cells assessed as growth inhibition at 3 ug/ml after 48 hrs by MTT assay relative to control; type: cell-based, HCT-116; conditions: read-out: GI
[14] = (§1) Cytotoxicity against human MCF7 cells assessed as growth inhibition after 48 hrs by MTT assay; type: cell-based; conditions: MCF7 cells
[15] = test system: MCF7; assay: as §1; type: cell-based; conditions: mcf7, 48 h
[16] = (§2) Cytotoxicity against human A549 cells assessed as growth inhibition after 48 hrs by MTT assay; type: cell-based; conditions: A549 cells
[17] = test system: A549; assay: as §2; type: cell-based; conditions: a549, 48 h
[18] = (§3) Cytotoxicity against human HCT116 cells assessed as growth inhibition after 48 hrs by MTT assay; type: cell-based, HCT-116; conditions: HCT116 cells
[19] = test system: HCT-116; assay: as §3; type: cell-based; conditions: hct-116, 48 h
[20] = Selectivity index, ratio of GI90 for human MCF7 cells to MIC90 for dormant state of Mycobacterium tuberculosis H37Ra; type: toxicity; conditions: read-out: Selectivity Index
[21] = Selectivity index, ratio of GI90 for human A549 cells to MIC90 for dormant state of Mycobacterium tuberculosis H37Ra; type: toxicity; conditions: read-out: Selectivity Index
[22] = Selectivity index, ratio of GI90 for human HCT116 cells to MIC90 for dormant state of Mycobacterium tuberculosis H37Ra; type: toxicity; conditions: read-out: Selectivity Index
[23] = Selectivity index, ratio of GI90 for human MCF7 cells to MIC90 for dormant state of dormant state of Mycobacterium bovis BCG; type: toxicity; conditions: read-out: Selectivity Index
[24] = Selectivity index, ratio of GI90 for human A549 cells to MIC90 for dormant state of dormant state of Mycobacterium bovis BCG; type: toxicity; conditions: read-out: Selectivity Index
[25] = Selectivity index, ratio of GI90 for human HCT116 cells to MIC90 for dormant state of dormant state of Mycobacterium bovis BCG; type: toxicity; conditions: read-out: Selectivity Index
[26] = test system: Escherichia coli; assay: Antibacterial activity against Escherichia coli ATCC […] after 8 hrs; type: functional
[27] = test system: Pseudomonas fluorescens; assay: Antibacterial activity against Pseudomonas fluorescens ATCC 13525 after 8 hrs; type: functional; conditions: ATCC 13525, 8 h
[28] = test system: Staphylococcus aureus; assay: Antibacterial activity against Staphylococcus aureus ATCC 29213 after 12 hrs; type: functional; conditions: ATCC 29213, 12 h
[29] = test system: Bacillus subtilis; assay: Antibacterial activity against Bacillus subtilis ATCC 23857 after 12 hrs; type: functional; conditions: ATCC 23857, 12 h

## CN1C/C(=C\c2cc3ccccc3nc2Cl)C(=O)/C(=C/c2cc3ccccc3nc2Cl)C1
[1]
  MIC50: 6.7 µg/mL (≈ 14.6 µM)
  MIC90: 26.5 µg/mL (≈ 57.6 µM)
[2]
  inhibition of growth at 30 µg/mL: 98%
[3]
  inhibition of growth at 10 µg/mL: 51.9%
[4]
  inhibition of growth at 3 µg/mL: 15.6%
[5]
  inhibition at 48 h, 30 ug/ml: 35.1%
[6]
  inhibition at 48 h, 10 ug/ml: 24.3%
[7]
  inhibition at 48 h, 3 ug/ml: 11.4%
[8]
  inhibition at 48 h, 30 ug/ml: -16.9%
[9]
  inhibition at 48 h, 10 ug/ml: 0%
[10]
  inhibition at 48 h, 3 ug/ml: -14.6%
[11]
  inhibition at 48 h, 30 ug/ml: -20.1%
[12]
  inhibition at 48 h, 10 ug/ml: -15.2%
[13]
  inhibition at 48 h, 3 ug/ml: -0.3%
[14]
  GI50 at 48 h: > 100 µg/mL
[15]
  GI90: > 100 µg/mL
[16]
  GI50 at 48 h: > 100 µg/mL
[17]
  GI90: > 100 µg/mL
[18]
  GI50 at 48 h: > 100 µg/mL
[19]
  GI90: > 100 µg/mL
[20]
  selectivity ratio: > 3
[21]
  selectivity ratio: > 3
[22]
  selectivity ratio: > 3
[23]
  selectivity ratio: > 13
[24]
  selectivity ratio: > 13
[25]
  selectivity ratio: > 13
[26]
  MIC50: > 30 µg/mL
  MIC90: > 30 µg/mL
[27]
  MIC50: > 30 µg/mL
  MIC90: > 30 µg/mL
[28]
  MIC50: > 30 µg/mL
  MIC90: > 30 µg/mL
[29]
  MIC50: > 30 µg/mL
  MIC90: > 30 µg/mL

## Cc1ccc2cc(/C=C3\CN(C)C/C(=C\c4cc5ccc(C)cc5nc4Cl)C3=O)c(Cl)nc2c1
[1]
  MIC50: 7.7 µg/mL (≈ 15.8 µM)
  MIC90: 20 µg/mL (≈ 40.9 µM)
[2]
  inhibition of growth at 30 µg/mL: 98.6%
[3]
  inhibition of growth at 10 µg/mL: 81.7%
[4]
  inhibition of growth at 3 µg/mL: -17.1%
[5]
  inhibition at 48 h, 30 ug/ml: 63.7%
[6]
  inhibition at 48 h, 10 ug/ml: 52%
[7]
  inhibition at 48 h, 3 ug/ml: 46.1%
[8]
  inhibition at 48 h, 30 ug/ml: 45.7%
[9]
  inhibition at 48 h, 10 ug/ml: 34.6%
[10]
  inhibition at 48 h, 3 ug/ml: 30.2%
[11]
  inhibition at 48 h, 30 ug/ml: 27.4%
[12]
  inhibition at 48 h, 10 ug/ml: 13.7%
[13]
  inhibition at 48 h, 3 ug/ml: 12.9%
[14]
  GI50 at 48 h: 8.23 µg/mL (≈ 16.9 µM)
[15]
  GI90: > 100 µg/mL
[16]
  GI50 at 48 h: > 100 µg/mL
[17]
  GI90: > 100 µg/mL
[18]
  GI50 at 48 h: > 100 µg/mL
[19]
  GI90: > 100 µg/mL
[26]
  MIC50: > 30 µg/mL
  MIC90: > 30 µg/mL
[27]
  MIC50: > 30 µg/mL
  MIC90: > 30 µg/mL
[28]
  MIC50: > 30 µg/mL
  MIC90: > 30 µg/mL
[29]
  MIC50: > 30 µg/mL
  MIC90: > 30 µg/mL

## CO[C@H]1/C=C/O[C@@]2(C)Oc3c(C)c(O)c4c(O)c(c(/C=N/N5CCN(C)CC5)c(O)c4c3C2=O)NC(=O)/C(C)=C\C=C\[C@H](C)[C@H](O)[C@@H](C)[C@@H](O)[C@@H](C)[C@H](OC(C)=O)[C@@H]1C [RIFAMPIN]
[1]
  MIC50: 0.0019 µg/mL (≈ 0.00231 µM)
  MIC90: 0.02 µg/mL (≈ 0.0243 µM)
[14]
  GI50 at 48 h: > 100 µg/mL
[15]
  GI90: > 100 µg/mL
[16]
  GI50 at 48 h: > 100 µg/mL
[17]
  GI90: > 100 µg/mL
[18]
  GI50 at 48 h: > 100 µg/mL
[19]
  GI90: > 100 µg/mL
[20]
  selectivity ratio: > 133
[21]
  selectivity ratio: > 133
[22]
  selectivity ratio: > 133
[23]
  selectivity ratio: > 123
[24]
  selectivity ratio: > 123
[25]
  selectivity ratio: > 123
